# Source: patent US20050137166A1, “Use of cooling agents to relieve mild ocular irritation and enhance comfort” (Alcon, Inc., priority 2003, published 2005)
# How the values were obtained:
# skin = details: versus menthol; cited from earlier work
# mouth = details: versus menthol; cited from earlier work
# eyes of human patients [1] = experiment: Cooling sensation of compositions topically applied to the eyes of human patients; assay type: in vivo; details: for ability to produce a cooling sensation: human patients
# Protocol: (§1) Compositions containing the cooling agents WS-3 and WS-23 in the vehicle described in Example 1 were prepared. The compositions were evaluated relative to the ability to produce a cooling sensation when topically applied to the eyes of human patients. The compositions were also evaluated with respect to the creation of ocular discomfort.
# eyes of human patients [2] = experiment: Creation of ocular discomfort after topical application to the eyes of human patients; assay type: in vivo
# Protocol: as §1
# [3] = WS-3 at 2 ppm to 5 ppm in the vehicle of Example 1, topical ocular
# [4] = ophthalmic composition, ocular cooling
# [5] = WS-23 at 10 ppm to 20 ppm in the vehicle of Example 1, topical ocular
compound,measurement,setting,value
CC1=C(N2CCCC2)C(=O)OC1 [4-methyl-3-(1-pyrrolididinyl)-2[5H]-furanone],"cooling power relative to menthol, on the skin",skin,over 500 times
same,"cooling power relative to menthol, in the mouth",mouth,thirty-five
"CCNC(=O)C1CC(C)CCC1C(C)C (centres unmarked) [WS-3, Cyclohexanecarboxamide, N-ethyl-5-methyl-2-(1-methylethyl)]",ability to produce a cooling sensation,eyes of human patients [1]; [3],refreshing
same,optimal concentration,eyes of human patients [1]; [4],1 to 5 PPM
same,ocular discomfort / tolerability,eyes of human patients [2]; [3],comfortable and well tolerated
"CNC(=O)C(C)(C(C)C)C(C)C [WS-23, N,2,3-Trimethyl-2-isopropylbutamide]",ability to produce a cooling sensation,eyes of human patients [1]; [5],produced a cooling effect
same,concentration at which most effective,eyes of human patients [1]; [4],10 to 20 ppm
same,ocular discomfort,eyes of human patients [2]; [5],comfortable
